Source: patent US11254696B2, “Dianilinopyrimidine compound for inhibiting kinase activity” (Shenzhen Targetrx, Inc., priority 2017, dated 2022)

Key:
ALK F1174C/V = details: Crizotinib-resistant mutation; cited from earlier work
ALK G1202R = ALK G1202R (Homo sapiens, UniProt Q9UM73, G1202R); details: Crizotinib-resistant mutation; cited from earlier work
BaF3 [EML4-ALK] [1] = biological target: T1, BaF3 [EML4-ALK] (Homo sapiens, UniProt Q9UM73); test: Cytotoxicity test (CellTiter-Glo), BaF3 [EML4-ALK]; type: cell-based; details: 72 hours, CellTiter-Glo; read-out: IC50(nM) ALK (Ba/F3)
T1 construct: IC50(nM) ALK (Ba/F3); other: 72 hours, CellTiter-Glo; BaF3 [EML4-ALK]; fused on or other part: Q9HC35 (Echinoderm microtubule-associated protein-like 4)
Procedure: (§1) The in vitro anti-proliferative activity of the compounds of the present disclosure against three types of cells that are cultured in vitro was tested by CellTiter-Glo method.
(§2) Cell lines: BaF3 parental; BaF3 [EML4-ALK] (From WuXi PharmaTech) and BaF3 [EMF4-AFK F1196M] (From WuXi PharmaTech); wherein, BaF3 parental was cultured in RPMI1640 medium containing 10 ng/ml IL-3, 10% fetal bovine serum, 100 U/ml penicillin, and 100 μg/ml streptomycin, BaF3 [EMF4-AFK] and BaF3 [EMF4-AFK F1196M] were cultured in RPMI1640 medium containing 10% fetal bovine serum, 100 U/ml penicillin, and 100 μg/ml streptomycin.
(§3) Reagents and materials: RPMI-1640 (GIBCO, Cat. No. A10491-01); fetal bovine serum (GIBCO, Cat. No. 10099141); 0.25% trypsin-EDTA (GIBCO, Cat. No. 25200); penicillin-streptomycin, liquid (GIBCO, Cat. No. 15140-122); DMSO (Sigma, Cat. No. D2650); CellTiter-Glo Test Kit (Promega, Cat. No. G7572), and 96-well plate (Corning, Cat. No. 3365).
(§4) 1. The test compounds were dissolved in DMSO to make stock solutions and subjected to a series gradient dilution to give solutions with 10-fold working concentration.
(§5) 2. The cells in the logarithmic growth phase were diluted with the culture solution to adjust to the specific cell concentration, 90 μi of cell suspension was added to the 96-well plate to make the cell density reach the specified concentration. The plate was incubated in a incubator at 37° C., containing 5% carbon dioxide gas overnight.
(§6) 3. 10 μl drug solutions were added to each well of the 96-well plate inoculated with cells. 10 concentrations of the compounds were tested starting from the highest concentration of 20 μM with a 3-fold series gradient dilution in duplicate.
(§7) 4. After continuously cultured for 72 hours, the cells were detected by CellTiter-Glo for the cell viability. The dose-effect curve was made using GraphPad Prism software and IC50 was calculated.

BaF3 [EML4-ALK] [2] = test: Cytotoxicity test (CellTiter-Glo), BaF3 [EML4-ALK]; type: cell-based; details: Ba/F3 cells
Procedure: as §1, §2, §3, §4, §5, §6, §7

[3] = Metabolic stability in rat liver microsomes; type: in vitro ADME; details: SD, pH 7.4, 1 μM compound, 0.5 mg/mL protein; for microsomal CLint at 1 μM: read-out: CLint (uL/min/mg), Rat liver microsome experiment; for half-life at 1 μM: read-out: t1/2 (min), Rat liver microsome experiment
Procedure: (§8) Experiments in microsomes: Human liver microsomes: 0.5 mg/mL, Xenotech; Rat liver microsomes: 0.5 mg/mL, Xenotech; Coenzyme (NADPH/NADH): 1 mM, Sigma Life Science; Magnesium chloride: 5 mM, 100 mM phosphate buffer (pH 7.4).
(§9) Preparation of stock solution: Powder of the example compounds was accurately weighed and dissolved in DMSO to 5 mM. Preparation of phosphate buffer (100 mM, pH7.4): A pre-formulated 0.5M potassium dihydrogen phosphate (150 mL) was mixed with 0.5M dibasic potassium phosphate (700 mL). The pH of the mixture was adjusted to 7.4 with 0.5M dibasic potassium phosphate solution. The mixture was diluted 5-fold with ultrapure water before use, and magnesium chloride was added to obtain a phosphate buffer (100 mM) containing 100 mM potassium phosphate, 3.3 mM magnesium chloride, pH7.4. A NADPH regeneration system solution (containing 6.5 mM NADP, 16.5 mM G-6-P, 3 U/mL G-6-PD, 3.3 mM magnesium chloride) was prepared and placed on wet ice prior to use. Preparation of stop solution: acetonitrile solution containing 50 ng/mL propranolol hydrochloride and 200 ng/mL tolbutamide (internal standard). 25057.5 μL of phosphate buffer (pH 7.4) was taken into a 50 mL centrifuge tube, to which 812.5 μL human liver microsomes were added, and mixed to obtain a liver microsome dilution solution with a protein concentration of 0.625 mg/mL. 25057.5 μL of phosphate buffer (pH 7.4) was taken into a 50 mL centrifuge tube, to which 812.5 μL SD rat liver microsomes were added, and mixed to obtain a liver microsome dilution solution with a protein concentration of 0.625 mg/mL.
(§10) Incubation of the samples: The stock solution of the respective compound was respectively diluted to 0.25 mM with an aqueous solution containing 70% acetonitrile, and used as a working solution, ready for use. 398 μL of the dilution solution of human liver microsomes or rat liver microsome were added to a 96-well incubation plate (N=2), respectively, and 2 μL of 0.25 mM working solution was added and mixed.
(§11) Metabolic stability assay: 300 μL of pre-chilled stop solution was added to each well of a 96-well deep well plate and placed on ice as a stop plate. The 96 well incubation plate and NADPH regeneration system were placed in a 37° C. water bath box, shaken at 100 rpm and pre-incubated for 5 min. 80 μL of incubation solution was taken out from each well of the incubation plate and added to the stop plate, mixed, and replenished with 20 μL of NADPH regeneration system solution as a 0-min sample. 80 μL of NADPH regeneration system solution was added to each well of the incubation plate to start the reaction and start counting. […] Separately, 100 μL of the reaction solution was taken at 10, 30, and 90 min reaction, respectively, added to a stop plate, and vortexed for 3 minutes to terminate the reaction. The stop plate was centrifuged at 5000×g at 4° C. for 4 min. 100 μL of the supernatant was added to a 96-well plate to which 100 μL of distilled water was previously added, mixed, and analyzed by LC-MS/MS.
(§12) Data analysis: The peak areas of the corresponding compound and internal standard were detected by LC-MS/MS system, and the ratio of the peak area of the compound to the internal standard was calculated.

BaF3 parental = test: Cytotoxicity test (CellTiter-Glo), BaF3 parental; type: cell-based; details: Mus musculus, 72 hours, read-out: IC50(nM) parental (Ba/F3)
Procedure: as §1, §2, §3, §4, §5, §6, §7

ALK [WT] = ALK [WT] (Homo sapiens, UniProt Q9UM73); test: Kinase inhibition assay, ALK [WT]; type: biochemical
Procedure: (§13) Compound preparation: The test compounds were dissolved in DMSO to make 20 mM stock solutions. The compounds were diluted in DMSO to 0.1 mM (a dilution with 100 times the final concentration) before use, and a 3-fold series gradient dilution with 11 concentrations was made. Dilutions with 4 times of the final concentration were prepared by diluting with buffer when dosing.
(§14) Kinase assay: after preparing the buffer solution, the enzyme was mixed with pre-diluted compounds with different concentrations, and placed at room temperature for 30 minutes in duplicate. The corresponding substrate and ATP were added thereto and reacted at room temperature for 60 minutes (both a negative and a positive control were set). After the reaction, antibody was added for detection, and after incubation at room temperature for 60 minutes, Evnvision detection was carried out, and data was collected. Data was analyzed and fit according to XLfit5 software. IC50 was calculated by the following formula: (IC50=[(ABS test−ABS begin)/(ABS control−ABS begin)]×100).

ALK [L1196M] = ALK [L1196M] (Homo sapiens, UniProt Q9UM73, L1196M); test: Kinase inhibition assay, ALK [L1196M]; type: biochemical
Procedure: as §13, §14

[4] = Metabolic stability in human liver microsomes; type: in vitro ADME; details: pH 7.4, 1 μM compound, 0.5 mg/mL protein; for microsomal CLint at 1 μM: read-out: CLint (uL/min/mg), Human liver microsome experiment; for half-life at 1 μM: read-out: t1/2 (min), Human liver microsome experiment
Procedure: as §8, §9, §10, §11, §12

ALK[L1196M] (Ba/F3) [5] = biological target: T2, ALK[L1196M] (Ba/F3) (Homo sapiens, UniProt Q9UM73, L1196M, cells depend on it); test: Cytotoxicity test (CellTiter-Glo), BaF3 EML4-ALK L1196M; type: cell-based; details: 72 hours, CellTiter-Glo; read-out: IC50(nM) ALK[L1196M] (Ba/F3)
T2 construct: IC50(nM) ALK[L1196M]; (Ba/F3); other: 72 hours, CellTiter-Glo; BaF3 [EMF4-AFK F1196M]; fused on or other part: Q9HC35 (Echinoderm microtubule-associated protein-like 4)
Procedure: as §1, §2, §3, §4, §5, §6, §7

ALK[L1196M] (Ba/F3) [6] = test: as above; type: cell-based; details: Ba/F3 cells
Procedure: as §1, §2, §3, §4, §5, §6, §7

T2 sequence (Q9UM73 whole entry L1196M, the tested form may be a part): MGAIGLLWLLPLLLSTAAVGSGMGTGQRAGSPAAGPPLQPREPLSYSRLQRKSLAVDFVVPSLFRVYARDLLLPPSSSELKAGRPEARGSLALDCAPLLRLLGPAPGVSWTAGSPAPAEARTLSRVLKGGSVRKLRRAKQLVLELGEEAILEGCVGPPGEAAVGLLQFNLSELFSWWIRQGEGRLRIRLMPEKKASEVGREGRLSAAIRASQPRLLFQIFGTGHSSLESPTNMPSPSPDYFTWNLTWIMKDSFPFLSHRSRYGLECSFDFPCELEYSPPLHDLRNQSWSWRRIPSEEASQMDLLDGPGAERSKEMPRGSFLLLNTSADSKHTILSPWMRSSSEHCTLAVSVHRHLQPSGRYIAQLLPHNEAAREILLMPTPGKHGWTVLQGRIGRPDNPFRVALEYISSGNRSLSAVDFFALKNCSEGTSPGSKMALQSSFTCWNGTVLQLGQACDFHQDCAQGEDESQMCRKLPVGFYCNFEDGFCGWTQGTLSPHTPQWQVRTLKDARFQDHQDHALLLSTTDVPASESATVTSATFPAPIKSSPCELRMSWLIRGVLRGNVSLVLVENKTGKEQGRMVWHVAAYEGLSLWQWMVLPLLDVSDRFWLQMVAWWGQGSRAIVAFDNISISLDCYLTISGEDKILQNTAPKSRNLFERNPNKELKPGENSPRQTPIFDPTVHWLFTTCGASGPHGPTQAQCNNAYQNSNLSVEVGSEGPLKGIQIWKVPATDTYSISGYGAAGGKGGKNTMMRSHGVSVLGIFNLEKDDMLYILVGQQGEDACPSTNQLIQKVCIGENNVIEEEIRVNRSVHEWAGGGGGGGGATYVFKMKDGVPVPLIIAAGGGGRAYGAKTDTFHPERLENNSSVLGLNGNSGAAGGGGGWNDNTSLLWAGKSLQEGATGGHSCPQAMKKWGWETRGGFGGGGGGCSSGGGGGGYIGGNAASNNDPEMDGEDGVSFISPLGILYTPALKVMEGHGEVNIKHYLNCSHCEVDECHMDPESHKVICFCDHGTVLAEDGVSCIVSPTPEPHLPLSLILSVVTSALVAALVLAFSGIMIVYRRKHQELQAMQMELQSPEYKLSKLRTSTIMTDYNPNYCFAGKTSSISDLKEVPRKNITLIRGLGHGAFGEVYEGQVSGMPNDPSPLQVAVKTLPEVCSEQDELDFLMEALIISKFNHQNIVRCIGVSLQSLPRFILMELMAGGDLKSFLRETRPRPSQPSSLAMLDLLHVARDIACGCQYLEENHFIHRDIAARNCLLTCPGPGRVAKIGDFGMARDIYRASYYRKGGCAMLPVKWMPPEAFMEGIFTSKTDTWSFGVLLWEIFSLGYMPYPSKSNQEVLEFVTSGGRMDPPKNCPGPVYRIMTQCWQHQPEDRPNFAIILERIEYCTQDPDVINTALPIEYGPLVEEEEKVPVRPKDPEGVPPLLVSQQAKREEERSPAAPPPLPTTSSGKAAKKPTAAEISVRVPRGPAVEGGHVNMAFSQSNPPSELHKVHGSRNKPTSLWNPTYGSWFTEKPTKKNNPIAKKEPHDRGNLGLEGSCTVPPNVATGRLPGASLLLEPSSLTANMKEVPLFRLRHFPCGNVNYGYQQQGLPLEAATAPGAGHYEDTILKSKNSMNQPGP
Chain of ALK [L1196M] (Q9UM73 19-1620 L1196M): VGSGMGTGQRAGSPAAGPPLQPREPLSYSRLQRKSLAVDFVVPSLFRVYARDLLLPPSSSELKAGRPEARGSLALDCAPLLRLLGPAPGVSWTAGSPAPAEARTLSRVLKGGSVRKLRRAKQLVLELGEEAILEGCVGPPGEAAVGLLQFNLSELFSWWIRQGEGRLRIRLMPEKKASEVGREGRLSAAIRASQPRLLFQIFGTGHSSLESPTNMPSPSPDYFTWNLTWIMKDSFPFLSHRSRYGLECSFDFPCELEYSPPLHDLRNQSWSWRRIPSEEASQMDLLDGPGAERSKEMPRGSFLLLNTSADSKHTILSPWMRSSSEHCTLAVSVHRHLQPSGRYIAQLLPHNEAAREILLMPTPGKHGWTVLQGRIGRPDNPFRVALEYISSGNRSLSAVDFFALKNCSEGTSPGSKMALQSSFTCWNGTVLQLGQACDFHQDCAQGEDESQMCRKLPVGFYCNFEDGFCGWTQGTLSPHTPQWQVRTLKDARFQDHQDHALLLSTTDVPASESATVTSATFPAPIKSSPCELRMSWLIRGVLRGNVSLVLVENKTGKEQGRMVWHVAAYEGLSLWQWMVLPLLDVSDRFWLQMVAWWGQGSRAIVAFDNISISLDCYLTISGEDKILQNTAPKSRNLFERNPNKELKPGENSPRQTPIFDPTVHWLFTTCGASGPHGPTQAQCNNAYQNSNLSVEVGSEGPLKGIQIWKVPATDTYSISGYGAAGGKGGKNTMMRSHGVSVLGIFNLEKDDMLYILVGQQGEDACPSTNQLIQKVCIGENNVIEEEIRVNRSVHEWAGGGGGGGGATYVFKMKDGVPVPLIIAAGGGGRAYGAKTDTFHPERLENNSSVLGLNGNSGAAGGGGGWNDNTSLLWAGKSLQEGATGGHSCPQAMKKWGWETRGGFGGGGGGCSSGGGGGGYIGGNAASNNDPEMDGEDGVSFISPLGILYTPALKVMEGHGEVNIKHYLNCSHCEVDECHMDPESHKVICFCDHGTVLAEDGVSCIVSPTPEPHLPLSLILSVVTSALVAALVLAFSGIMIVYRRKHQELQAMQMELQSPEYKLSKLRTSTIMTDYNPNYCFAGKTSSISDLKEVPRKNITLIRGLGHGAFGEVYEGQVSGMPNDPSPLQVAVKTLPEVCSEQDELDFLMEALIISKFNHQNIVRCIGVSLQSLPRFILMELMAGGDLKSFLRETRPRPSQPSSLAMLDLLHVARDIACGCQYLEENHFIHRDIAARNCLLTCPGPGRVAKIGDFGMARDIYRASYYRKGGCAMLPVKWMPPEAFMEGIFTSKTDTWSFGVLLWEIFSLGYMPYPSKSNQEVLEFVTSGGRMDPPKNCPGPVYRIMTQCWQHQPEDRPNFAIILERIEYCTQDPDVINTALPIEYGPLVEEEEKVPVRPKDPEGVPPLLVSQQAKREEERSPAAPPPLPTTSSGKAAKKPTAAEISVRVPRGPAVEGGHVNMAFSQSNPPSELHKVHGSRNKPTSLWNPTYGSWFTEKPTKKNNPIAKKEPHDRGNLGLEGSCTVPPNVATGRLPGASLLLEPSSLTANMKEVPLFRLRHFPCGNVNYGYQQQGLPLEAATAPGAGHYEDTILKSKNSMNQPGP
T1 sequence (Q9UM73 whole entry, change not shown, the tested form may be a part): as the sequence (Q9UM73 whole entry L1196M, the tested form may be a part) above, with M1196L counted along it
Chain of ALK [WT] (Q9UM73 19-1620): as the sequence (Q9UM73 19-1620 L1196M) above, with M1178L counted along it
Chain of ALK G1202R (Q9UM73 19-1620 G1202R): as the sequence (Q9UM73 19-1620 L1196M) above, with M1178L, G1184R counted along it

Row | Compound | effect on F1174C/V (ALK F1174C/V) | effect on G1202R (ALK G1202R) | GI50 (BaF3 [EML4-ALK] [1]) | Selectivity parental/ALK (BaF3 [EML4-ALK] [2]) | microsomal CLint at 1 μM [3] | half-life at 1 μM [3] | IC50 (BaF3 parental) | IC50 (ALK [WT]) | IC50 (ALK [L1196M]) | microsomal CLint at 1 μM [4] | half-life at 1 μM [4] | GI50 (ALK[L1196M] (Ba/F3) [5]) | Selectivity parental/ALK[L1196M] (ALK[L1196M] (Ba/F3) [6])
1 | Cc1cc(Nc2ncc(Cl)c(Nc3ccccc3S(=O)(=O)C(C)C)n2)c(OC(C)C)cc1C1CCNCC1 [Ceritinib] | no effect | neither of them has effect | – | – | – | – | – | – | – | – | – | – | –
2 | COc1cc(C(C)(C)N(C)C)ccc1Nc1ncc(Cl)c(Nc2ccccc2P(C)(C)=O)n1 [Example 14, (2-((5-chloro-2-((4-(2-(dimethylamino)propan-2-yl)-2-methoxyphenyl)amino)pyrimidin-4-yl)amino)phenyl)dimethylphosphine oxide] | – | – | < 25 nM | 100 to 200 | 33.4 µL/min/mg | 41.5 min | ≥ 1000 nM | ≤ 2 nM | 2 to 5 nM | 29.9 µL/min/mg | 46.4 min | 50 to 100 nM | <50
3 | COc1cc(C(C)CN(C)C)ccc1Nc1ncc(Cl)c(Nc2ccccc2P(C)(C)=O)n1 (centres unmarked) [Example 17, (2-((5-chloro-2-((4-(1-(dimethylamino)propan-2-yl)-2-methoxyphenyl)amino)pyrimidin-4-yl)amino)phenyl)dimethylphosphine oxide] | – | – | 25 to 50 nM | 100 to 200 | 29.7 µL/min/mg | 46.7 min | ≥ 1000 nM | 5 to 10 nM | 5 to 10 nM | 18.6 µL/min/mg | 74.3 min | 100 to 200 nM | 50 to 100
4 | COc1cc(C(C)(C)CN(C)C)ccc1Nc1ncc(Cl)c(Nc2ccccc2P(C)(C)=O)n1 [Example 12, (2-((5-chloro-2-((4-(1-(dimethylamino)-2-methylpropan-2-yl)-2-methoxyphenyl)amino)pyrimidin-4-yl)amino)phenyl)dimethylphosphine oxide] | – | – | 25 to 50 nM | 100 to 200 | 86.8 µL/min/mg | 16 min | ≥ 1000 nM | 2 to 5 nM | 5 to 10 nM | 73.5 µL/min/mg | 18.9 min | 50 to 100 nM | <50
5 | COc1cc(C(C)CN)ccc1Nc1ncc(Cl)c(Nc2ccccc2P(C)(C)=O)n1 (centres unmarked) [Example 16, (2-((2-((4-(1-aminopropan-2-yl)-2-methoxyphenyl)amino)-5-chloropyrimidin-4-yl)amino)phenyl)dimethylphosphine oxide] | – | – | 200 to 1000 nM | 50 to 100 | 11.7 µL/min/mg | 118 min | ≥ 1000 nM | 5 to 10 nM | 5 to 10 nM | 21.5 µL/min/mg | 64.6 min | 200 to 1000 nM | <50
6 | COc1cc(C(C)(C)CN)ccc1Nc1ncc(Cl)c(Nc2ccccc2P(C)(C)=O)n1 [Example 10, (2-((2-((4-(1-amino-2-methylpropan-2-yl)-2-methoxyphenyl)amino)-5-chloropyrimidin-4-yl)amino)phenyl)dimethylphosphine oxide] | – | – | 25 to 50 nM | 100 to 200 | 15.1 µL/min/mg | 92 min | ≥ 1000 nM | 2 to 5 nM | 2 to 5 nM | 25.2 µL/min/mg | 55 min | 100 to 200 nM | <50
7 | COc1cc(CCN(C)C)c(C)cc1Nc1ncc(Cl)c(Nc2ccccc2P(C)(C)=O)n1 [Example 20, (2-((5-chloro-2-((4-(2-(dimethylamino)ethyl)-2-methoxy-5-methylphenyl)amino)pyrimidin-4-yl)amino)phenyl)dimethylphosphine oxide] | – | – | 25 to 50 nM | 50 to 100 | 32.3 µL/min/mg | 42.9 min | ≥ 1000 nM | 2 to 5 nM | 2 to 5 nM | 5.4 µL/min/mg | 259 min | 25 to 50 nM | 50 to 100
